Experimental data taken from article PMC11450061 (Clinical Pharmacokinetics, 2024).
Where two headings read alike, the source gives them in different places.

Key:
[1] = Population pharmacokinetics; set-up: species or system human
Exposure-response safety = type: in vivo, human; conditions: for predicted probability of AST increase grade ≥ 2 event within a cycle: ASCEMBL study
[2] = TEAEs leading to dose reduction/interruption, time-dependent Cox regression; type: in vivo, human; conditions: 152 of 351 patients; pooled dose-finding and ASCEMBL
[3] = Concentration-QTcF analysis; type: in vivo, human
[4] = test system: BCR::ABL1^IS in patients with CML-CP treated with two or more prior TKIs; conditions: asciminib 40 mg b.i.d. vs bosutinib 500 mg q.d.; cited from earlier work
[5] = asciminib 40 mg b.i.d. vs bosutinib 500 mg q.d.; cited from earlier work
[6] = cited from earlier work
[7] = cited from earlier work; remark: listed apart in the source
[8] = test system: BCR::ABL1^IS levels in patients with CML-CP without the T315I mutation; assay: Exposure-response efficacy; conditions: Cmin model

Row | SMILES | Cmin lower for 80 mg q.d. compared with 40 mg b.i.d. [1] | increase in Cmax with 80 mg q.d. compared with 40 mg b.i.d. ([1]; based on PopPK) [%] | predicted probability of AST increase grade ≥ 2 event within a cycle (Exposure-response safety; 5-fold increase in geometric mean Cmax of 40 mg b.i.d.) [%] | predicted probability of AST increase grade ≥ 2 event within a cycle (Exposure-response safety; geometric mean Cmax of 40 mg b.i.d.) [%] | relationship between asciminib exposure and the majority of the laboratory events analyzed (Exposure-response safety; repeated measures logistic regression) | patients with TEAEs leading to dose reduction or dose interruption [2] [%] | estimated mean QTcF change from baseline ([3]; at Cmax of 40 mg b.i.d.) | estimated mean QTcF change from baseline ([3]; at Cmax of 80 mg q.d.) | estimated mean QTcF change from baseline ([3]; at Cmax of 200 mg b.i.d.) | estimated mean QTcF change from baseline ([3]; at the HCRE (highest clinically relevant exposure)) | proportion of patients achieving MMR (BCR::ABL1^IS ≤ 0.1%) at 96 weeks [4] [%] | AEs leading to treatment discontinuation [5] [%] | grade ≥ 3 adverse events [5] [%] | increase in Cmax of asciminib when taken in combination with imatinib [6] [fold] | decrease in exposure compared with the fasted state ([7]; high-fat meal) | decrease in exposure compared with the fasted state ([7]; low-fat meal) | decrease in drug effect with a Cmin lower by 30% [8] [%] | Effmag (population mean, RSE) ([8]; patients without T315I)
1 | O=C(Nc1ccc(OC(F)(F)Cl)cc1)c1cnc(N2CC[C@@H](O)C2)c(-c2ccn[nH]2)c1 [asciminib] | about 30% | 60 | 0.4 | 0.1 | no statistically significant relationship | 43.3 | 3.35 (90% CI 2.28–4.43) ms | 3.64 (90% CI 2.60–4.68) ms | 5.37 (90% CI 3.97–6.77) ms | 6.77 (90% CI 4.67–8.87) ms | 37.6 | 7.7 | 56.4 | 1.59 | approximately 65% | approximately 30% | < 2 | 42.1 (3.4%)
2 | COc1cc(Nc2c(C#N)cnc3cc(OCCCN4CCN(C)CC4)c(OC)cc23)c(Cl)cc1Cl [bosutinib] |  |  |  |  |  |  |  |  |  |  | 15.8 | 26.3 | 68.4 |  |  |  |  | 
